Reference: ChEMBL document CHEMBL5055685, “Discovery of the First Potent IDO1/IDO2 Dual Inhibitors: A Promising Strategy for Cancer Immunotherapy” (J Med Chem, 2021)
Activity calls are given as the source filed them.

Key:
[1] = target: CDK6/cyclin D1 (Homo sapiens) (UniProt P24385+Q00534); assay: Inhibition of CDK6/cyclin-D1 (unknown origin) at 1 uM; type: protein-complex assay
[2] = target: Serine/threonine-protein kinase PLK2 (Homo sapiens) (UniProt Q9NYY3); assay: Inhibition of PLK2 (unknown origin) at 1 uM
[3] = target: G protein-coupled receptor kinase 6 (Homo sapiens) (UniProt P43250); assay: Inhibition of GRK6 (unknown origin) at 1 uM
[4] = target: Serine/threonine-protein kinase TAO3 (Homo sapiens) (UniProt Q9H2K8); assay: Inhibition of TAOK3 (unknown origin) at 1 uM
[5] = target: Activin receptor type-1 (Homo sapiens) (UniProt Q04771); assay: Inhibition of ALK2 (unknown origin) at 1 uM
[6] = target: Dual specificity tyrosine-phosphorylation-regulated kinase 1B (Homo sapiens) (UniProt Q9Y463); assay: Inhibition of DYRK1B (unknown origin) at 1 uM
[7] = target: Megakaryocyte-associated tyrosine-protein kinase (Homo sapiens) (UniProt P42679); assay: Inhibition of CTK (unknown origin) at 1 uM
[8] = target: STE20/SPS1-related proline-alanine-rich protein kinase (Homo sapiens) (UniProt Q9UEW8); assay: Inhibition of STK39 (unknown origin) at 1 uM
[9] = target: Receptor tyrosine-protein kinase erbB-4 (Homo sapiens) (UniProt Q15303); assay: Inhibition of ERBB4 (unknown origin) at 1 uM
[10] = target: Serine/threonine-protein kinase NLK (Homo sapiens) (UniProt Q9UBE8); assay: Inhibition of NLK (unknown origin) at 1 uM
[11] = target: SNF-related serine/threonine-protein kinase (Homo sapiens) (UniProt Q9NRH2); assay: Inhibition of SNRK (unknown origin) at 1 uM
Mus musculus [12] = assay: Toxicity in BALB/c mouse implanted with mouse CT26 cells assessed as adverse effect at 50 mg/kg, ip bid for 28 days; type: organism-based; conditions: in vivo, 672 h, time 28 day
[13] = target: Rho-associated protein kinase 2 (Homo sapiens) (UniProt O75116); assay: Inhibition of ROCK2 (unknown origin) at 1 uM
[14] = target: Serine/threonine-protein kinase Nek4 (Homo sapiens) (UniProt P51957); assay: Inhibition of NEK4 (unknown origin) at 1 uM
[15] = target: LIM domain kinase 1 (Homo sapiens) (UniProt P53667); assay: Inhibition of LIMK1 (unknown origin) at 1 uM
Rattus norvegicus = assay: Toxicity in rat assessed as weight loss at […]; type: organism-based; conditions: in vivo
[16] = Protein binding in human plasma assessed as fraction unbound by equilibrium dialysis; type: ADME, cell-free
[17] = target: Cyclin-Y/Cyclin-dependent kinase 16 (Homo sapiens) (UniProt Q00536+Q8ND76); assay: Inhibition of CDK16/cyclin-Y (unknown origin) at 1 uM; type: protein-complex assay
[18] = Toxicity in rat assessed as maximum tolerated dose; type: organism-based; conditions: in vivo
[19] = target: RAC-alpha serine/threonine-protein kinase (Homo sapiens) (UniProt P31749); assay: Inhibition of AKT1 (unknown origin) at 1 uM
[20] = target: Serine/threonine-protein kinase/endoribonuclease IRE1 (Homo sapiens) (UniProt O75460); assay: Inhibition of ERN1 (unknown origin) at 1 uM
[21] = target: Tyrosine-protein kinase Lck (Homo sapiens) (UniProt P06239); assay: Inhibition of LCK (unknown origin) at 1 uM
[22] = target: Serine/threonine-protein kinase BRSK1 (Homo sapiens) (UniProt Q8TDC3); assay: Inhibition of BRSK1 (unknown origin) at 1 uM
Mus musculus [23] = assay: In vivo inhibition of IDO2 in BALB/c mouse xenografted with human HCT-116 cells assessed as suppression of IDO2 expression in tumor by immunohistochemical assay; type: functional, organism-based
[24] = target: Dual specificity mitogen-activated protein kinase kinase 5 (Homo sapiens) (UniProt Q13163); assay: Inhibition of MEK5 (unknown origin) at 1 uM
[25] = target: Serine/threonine-protein kinase SBK1 (Homo sapiens) (UniProt Q52WX2); assay: Inhibition of SBK1 (unknown origin) at 1 uM
[26] = target: Serine/threonine-protein kinase PAK 5 (Homo sapiens) (UniProt Q9P286); assay: Inhibition of PAK5 (unknown origin) at 1 uM
[27] = Metabolic stability in monkey liver microsomes assessed as rate constant; type: ADME, Macaca mulatta, Microsome; conditions: rhesus monkey
[28] = target: Serine/threonine-protein kinase WNK3 (Homo sapiens) (UniProt Q9BYP7); assay: Inhibition of WNK3 (unknown origin) at 1 uM
[29] = target: Receptor-type tyrosine-protein kinase FLT3 (Homo sapiens) (UniProt P36888); assay: Inhibition of FLT3 (unknown origin) at 1 uM
[30] = Half life in human liver microsomes; type: ADME, Microsome
[31] = target: Serine/threonine-protein kinase PAK 2 (Homo sapiens) (UniProt Q13177); assay: Inhibition of PAK2 (unknown origin) at 1 uM
[32] = target: Mitogen-activated protein kinase kinase kinase 8 (Homo sapiens) (UniProt P41279); assay: Inhibition of COT1 (unknown origin) at 1 uM
[33] = target: Myosin light chain kinase (Homo sapiens) (UniProt Q32MK0); assay: Inhibition of MYLK3 (unknown origin) at 1 uM
[34] = target: Homeodomain-interacting protein kinase 2 (Homo sapiens) (UniProt Q9H2X6); assay: Inhibition of HIPK2 (unknown origin) at 1 uM
[35] = target: Rho-associated protein kinase 1 (Homo sapiens) (UniProt Q13464); assay: Inhibition of ROCK1 (unknown origin) at 1 uM
[36] = target: Casein kinase I isoform gamma-3 (Homo sapiens) (UniProt Q9Y6M4); assay: Inhibition of CK1gamma3 (unknown origin) at 1 uM
[37] = target: Calcium/calmodulin-dependent protein kinase kinase 1 (Homo sapiens) (UniProt Q8N5S9); assay: Inhibition of CAMKK1 (unknown origin) at 1 uM
[38] = target: Death-associated protein kinase 2 (Homo sapiens) (UniProt Q9UIK4); assay: Inhibition of DAPK2 (unknown origin) at 1 uM
[39] = target: Mitogen-activated protein kinase 14 (Homo sapiens) (UniProt Q16539); assay: Inhibition of p38alpha (unknown origin) at 1 uM
[40] = target: Insulin-like growth factor 1 receptor (Homo sapiens) (UniProt P08069); assay: Inhibition of IGF1R (unknown origin) at 1 uM
[41] = target: Protein-tyrosine kinase 2-beta (Homo sapiens) (UniProt Q14289); assay: Inhibition of PYK2 (unknown origin) at 1 uM
[42] = target: Mitogen-activated protein kinase 15 (Homo sapiens) (UniProt Q8TD08); assay: Inhibition of ERK7 (unknown origin) at 1 uM
[43] = target: Tyrosine-protein kinase HCK (Homo sapiens) (UniProt P08631); assay: Inhibition of HCK (unknown origin) at 1 uM
[44] = target: Dual specificity mitogen-activated protein kinase kinase 4 (Homo sapiens) (UniProt P45985); assay: Inhibition of MKK4 (unknown origin) at 1 uM
Sequence of Dual specificity mitogen-activated protein kinase kinase 4 (Homo sapiens) (P45985 whole entry): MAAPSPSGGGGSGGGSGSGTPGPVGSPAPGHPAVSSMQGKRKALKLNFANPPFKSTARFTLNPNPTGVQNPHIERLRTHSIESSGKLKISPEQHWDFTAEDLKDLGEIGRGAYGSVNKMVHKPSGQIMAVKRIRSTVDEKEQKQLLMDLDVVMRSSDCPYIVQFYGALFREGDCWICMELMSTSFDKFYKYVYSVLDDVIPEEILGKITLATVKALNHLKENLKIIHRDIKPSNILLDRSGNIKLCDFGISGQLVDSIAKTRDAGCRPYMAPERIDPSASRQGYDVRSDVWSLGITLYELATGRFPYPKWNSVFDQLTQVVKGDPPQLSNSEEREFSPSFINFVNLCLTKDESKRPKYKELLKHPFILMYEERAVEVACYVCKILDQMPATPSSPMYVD

Sequence of Dual specificity mitogen-activated protein kinase kinase 5 (Homo sapiens) (Q13163 whole entry): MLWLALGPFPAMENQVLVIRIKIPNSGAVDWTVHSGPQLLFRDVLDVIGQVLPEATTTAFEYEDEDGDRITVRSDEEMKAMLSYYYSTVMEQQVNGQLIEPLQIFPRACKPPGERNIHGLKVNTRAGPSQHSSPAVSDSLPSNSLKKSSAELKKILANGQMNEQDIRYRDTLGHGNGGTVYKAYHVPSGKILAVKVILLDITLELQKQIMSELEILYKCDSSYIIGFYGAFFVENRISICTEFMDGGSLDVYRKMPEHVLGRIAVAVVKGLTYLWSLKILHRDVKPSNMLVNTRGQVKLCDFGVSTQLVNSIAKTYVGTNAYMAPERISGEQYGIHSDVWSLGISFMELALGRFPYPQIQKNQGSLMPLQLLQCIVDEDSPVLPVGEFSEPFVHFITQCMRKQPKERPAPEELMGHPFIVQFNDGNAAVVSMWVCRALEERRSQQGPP
Sequence of Insulin-like growth factor 1 receptor (Homo sapiens) (P08069 31-736 limits assumed): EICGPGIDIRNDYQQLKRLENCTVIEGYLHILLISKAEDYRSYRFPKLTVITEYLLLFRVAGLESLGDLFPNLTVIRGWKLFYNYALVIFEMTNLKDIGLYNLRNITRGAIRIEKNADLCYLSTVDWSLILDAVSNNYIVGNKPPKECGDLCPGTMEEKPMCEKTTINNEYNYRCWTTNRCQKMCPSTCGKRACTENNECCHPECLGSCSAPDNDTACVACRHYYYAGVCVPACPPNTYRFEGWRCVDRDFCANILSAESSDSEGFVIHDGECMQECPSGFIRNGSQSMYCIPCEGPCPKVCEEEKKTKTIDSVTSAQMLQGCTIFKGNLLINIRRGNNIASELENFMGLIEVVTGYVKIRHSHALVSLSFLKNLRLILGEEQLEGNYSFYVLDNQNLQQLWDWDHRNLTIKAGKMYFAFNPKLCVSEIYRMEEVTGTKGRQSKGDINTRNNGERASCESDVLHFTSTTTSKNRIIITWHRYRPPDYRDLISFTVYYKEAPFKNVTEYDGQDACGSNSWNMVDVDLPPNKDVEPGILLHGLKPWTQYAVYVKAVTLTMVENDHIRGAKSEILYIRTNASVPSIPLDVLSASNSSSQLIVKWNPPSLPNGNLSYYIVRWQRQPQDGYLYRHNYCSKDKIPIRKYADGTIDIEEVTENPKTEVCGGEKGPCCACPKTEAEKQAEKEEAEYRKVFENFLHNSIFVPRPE
Sequence of Insulin-like growth factor 1 receptor (Homo sapiens) (P08069 741-1367 limits assumed): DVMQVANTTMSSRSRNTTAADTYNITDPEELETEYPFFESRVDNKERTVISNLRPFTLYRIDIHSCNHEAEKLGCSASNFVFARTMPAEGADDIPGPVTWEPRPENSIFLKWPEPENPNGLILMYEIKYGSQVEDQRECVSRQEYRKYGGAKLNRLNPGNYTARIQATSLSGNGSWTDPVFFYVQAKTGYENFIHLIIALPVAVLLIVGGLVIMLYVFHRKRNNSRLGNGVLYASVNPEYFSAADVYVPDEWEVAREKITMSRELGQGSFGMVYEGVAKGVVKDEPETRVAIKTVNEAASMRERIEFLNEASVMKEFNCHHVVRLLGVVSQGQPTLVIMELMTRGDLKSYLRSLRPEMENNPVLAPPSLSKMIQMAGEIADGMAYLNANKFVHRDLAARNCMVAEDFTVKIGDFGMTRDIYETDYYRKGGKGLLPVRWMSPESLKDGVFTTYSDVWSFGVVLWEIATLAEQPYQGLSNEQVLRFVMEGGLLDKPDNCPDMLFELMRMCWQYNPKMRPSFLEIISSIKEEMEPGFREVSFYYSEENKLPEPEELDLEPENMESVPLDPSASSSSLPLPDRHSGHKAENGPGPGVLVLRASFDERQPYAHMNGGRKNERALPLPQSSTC
Sequence of Myosin light chain kinase (Homo sapiens) (Q32MK0 whole entry): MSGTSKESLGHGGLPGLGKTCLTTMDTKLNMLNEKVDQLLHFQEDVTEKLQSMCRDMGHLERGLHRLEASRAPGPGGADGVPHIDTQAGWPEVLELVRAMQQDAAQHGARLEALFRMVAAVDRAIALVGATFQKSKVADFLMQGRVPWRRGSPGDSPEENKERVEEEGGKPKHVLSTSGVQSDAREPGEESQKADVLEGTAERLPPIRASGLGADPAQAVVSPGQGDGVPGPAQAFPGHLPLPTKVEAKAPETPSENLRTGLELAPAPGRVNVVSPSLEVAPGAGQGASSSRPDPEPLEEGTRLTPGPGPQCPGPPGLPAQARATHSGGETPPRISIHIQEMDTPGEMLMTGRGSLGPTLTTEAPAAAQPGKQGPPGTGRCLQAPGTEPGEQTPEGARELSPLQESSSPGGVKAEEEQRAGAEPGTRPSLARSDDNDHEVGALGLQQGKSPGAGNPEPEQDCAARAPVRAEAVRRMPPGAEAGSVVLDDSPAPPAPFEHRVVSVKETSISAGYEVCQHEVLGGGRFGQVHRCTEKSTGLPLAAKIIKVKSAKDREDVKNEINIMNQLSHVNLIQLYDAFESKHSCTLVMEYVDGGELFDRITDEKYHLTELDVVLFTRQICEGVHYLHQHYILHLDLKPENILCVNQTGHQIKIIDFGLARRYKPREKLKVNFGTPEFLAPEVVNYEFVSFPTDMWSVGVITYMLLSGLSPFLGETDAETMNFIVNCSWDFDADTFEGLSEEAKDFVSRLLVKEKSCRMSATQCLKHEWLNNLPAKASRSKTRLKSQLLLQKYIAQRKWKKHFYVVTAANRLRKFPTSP
Sequence of Tyrosine-protein kinase HCK (Homo sapiens) (P08631 2-526 limits assumed): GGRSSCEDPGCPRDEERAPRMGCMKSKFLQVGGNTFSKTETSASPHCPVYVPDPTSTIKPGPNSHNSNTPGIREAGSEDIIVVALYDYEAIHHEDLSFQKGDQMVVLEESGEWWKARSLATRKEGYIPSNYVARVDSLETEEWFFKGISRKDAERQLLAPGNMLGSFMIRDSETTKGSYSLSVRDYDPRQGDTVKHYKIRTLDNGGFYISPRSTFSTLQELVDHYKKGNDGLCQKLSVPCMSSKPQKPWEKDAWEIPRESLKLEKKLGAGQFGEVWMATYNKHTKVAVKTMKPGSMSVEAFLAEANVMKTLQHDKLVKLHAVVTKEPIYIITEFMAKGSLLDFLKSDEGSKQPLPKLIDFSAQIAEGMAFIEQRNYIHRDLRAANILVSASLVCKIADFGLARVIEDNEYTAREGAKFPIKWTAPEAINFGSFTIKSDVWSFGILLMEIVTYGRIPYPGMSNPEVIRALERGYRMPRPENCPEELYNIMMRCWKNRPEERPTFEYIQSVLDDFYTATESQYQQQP
Sequence of Serine/threonine-protein kinase PLK2 (Homo sapiens) (Q9NYY3 whole entry, looked up): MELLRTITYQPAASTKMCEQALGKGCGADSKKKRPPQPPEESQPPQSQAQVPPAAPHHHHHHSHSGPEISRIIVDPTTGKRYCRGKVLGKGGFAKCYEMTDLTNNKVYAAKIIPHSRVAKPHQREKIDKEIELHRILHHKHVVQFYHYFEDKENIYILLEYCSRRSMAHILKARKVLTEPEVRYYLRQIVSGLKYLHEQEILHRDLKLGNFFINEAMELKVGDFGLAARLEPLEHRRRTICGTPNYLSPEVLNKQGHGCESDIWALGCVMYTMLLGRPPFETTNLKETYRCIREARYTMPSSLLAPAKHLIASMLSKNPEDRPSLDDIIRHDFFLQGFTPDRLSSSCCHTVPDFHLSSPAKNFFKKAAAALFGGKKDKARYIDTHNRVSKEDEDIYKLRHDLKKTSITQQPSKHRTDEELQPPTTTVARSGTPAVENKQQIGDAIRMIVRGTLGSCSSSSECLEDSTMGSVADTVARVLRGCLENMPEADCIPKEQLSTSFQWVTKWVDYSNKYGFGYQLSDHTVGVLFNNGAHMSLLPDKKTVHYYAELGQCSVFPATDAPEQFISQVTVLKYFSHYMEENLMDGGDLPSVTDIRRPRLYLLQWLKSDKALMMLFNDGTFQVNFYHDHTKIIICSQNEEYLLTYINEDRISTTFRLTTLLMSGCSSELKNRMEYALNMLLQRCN
Sequence of Megakaryocyte-associated tyrosine-protein kinase (Homo sapiens) (P42679 whole entry): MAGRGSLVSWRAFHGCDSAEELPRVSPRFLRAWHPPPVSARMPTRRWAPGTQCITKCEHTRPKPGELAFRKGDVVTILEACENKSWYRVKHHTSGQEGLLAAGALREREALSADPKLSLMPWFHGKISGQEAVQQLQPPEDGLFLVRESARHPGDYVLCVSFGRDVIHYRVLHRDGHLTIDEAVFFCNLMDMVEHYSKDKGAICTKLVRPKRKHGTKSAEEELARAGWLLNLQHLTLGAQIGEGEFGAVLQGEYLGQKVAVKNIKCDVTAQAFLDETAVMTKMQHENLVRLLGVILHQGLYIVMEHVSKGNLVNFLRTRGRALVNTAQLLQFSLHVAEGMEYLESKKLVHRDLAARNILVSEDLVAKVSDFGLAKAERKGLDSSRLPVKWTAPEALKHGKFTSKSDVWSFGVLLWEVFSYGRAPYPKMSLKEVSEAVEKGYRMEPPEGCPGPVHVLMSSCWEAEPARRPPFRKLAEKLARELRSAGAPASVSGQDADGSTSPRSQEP

OCCOCc1cn(CCNc2nonc2/C(=N/O)Nc2ccc(F)c(Br)c2)nn1
active: inhibition (Mus musculus [23])
Non-Toxic: Activity (Mus musculus [12]) | Activity (Rattus norvegicus)
46.1 min: half-life [30]
inactive: inhibition [1] | inhibition [2] | inhibition [3] | inhibition [4] | inhibition [5] | inhibition [6] | inhibition [7] | inhibition [8] | inhibition [9] | inhibition [10] | inhibition [11] | inhibition [13] | inhibition [14] | inhibition [15] | inhibition [17] | inhibition [19] | inhibition [20] | inhibition [21] | inhibition [22] | inhibition [24] | inhibition [25] | inhibition [26] | inhibition [28] | inhibition [29] | inhibition [31] | inhibition [32] | inhibition [33] | inhibition [34] | inhibition [35] | inhibition [36] | inhibition [37] | inhibition [38] | inhibition [39] | inhibition [40] | inhibition [41] | inhibition [42] | inhibition [43] | inhibition [44]
0.0411: fraction unbound [16]
0.0003 s⁻¹: k el [27]
2 mg/kg: MTD [18]
